# In US20100196311A1, “METHODS AND COMPOSITIONS CONTAINING mTOR INHIBITORS FOR ENHANCING IMMUNE RESPONSES” (priority 2009, published 2010):
# Legend:
# [1] = test system: T-bet; experiment: T-bet mRNA and protein expression in OT-I cells; format: cell-based, mouse
# Procedure: FIG. 4. IL-12-Enhanced mTOR Phosphorylation Is Essential for T-bet-Determined Type I Effector Maturation of CD8^+ T Cells. (A-C) OT-I cells stimulated with Ag+B7.1 (±) IL-12 and rapamycin were evaluated for (A) mRNA for T-bet at the indicated time points by RT-PCR, (B) T-bet protein expression at the indicated time-points by ICS, and (C) T-bet protein expression by ICS before and after antigen recall. **p<0.0035; ***p<0.0005. (D) WT and Tbx21^−1− OT-I cells were stimulated with Ag+B7.1 (±) IL-12 and evaluated for IFN-γ production at the primary and secondary phase. ***p<0.0001. (E and F) OT-I cells stimulated with Ag+B7.1 (±) IL-12 and rapamycin were transduced with T-bet-ER retroviral vector (±) 4-HT (10 nM) and evaluated by ICS for (E) T-bet protein expression by ICS and (F) IFN-γ at secondary phase (168 hr). (G and H) OT-I cells stimulated with Ag+B7.1 (±) insulin (1 U/ml) and rapamycin were evaluated by ICS for (G) S6K phosphorylation at 48 hr and (H) T-bet expression at 72 hr. Experiments shown are representative of at least three (A, B, D, E, and F) and two (C, G, and H) independent experiments with similar outcomes. (Data are presented as mean±SEM).
# Retroviral Transduction and T-Bet Induction. T-bet-ER RV (Estrogen Responsive Retro Viral Vector) was cotransfected into Platinum-E cells together with the retroviral packaging vector pCL-Eco using LipoD293 DNA in vitro transfection reagent (SignaGen Laboratories) following the manufacturer's instructions. The medium was replaced the following day, and retroviral supernatant was collected 3 days after transfection. For transduction, naive OT-I cells stimulated for 24 hr, were suspended in retroviral supernatant containing polybrene (8 μg/ml; Sigma-Aldrich), and were spin-transduced at 2200 rpm for 90 min at 30° C. After spin-transduction, cells were cultured in fresh medium containing the same polarizing milieu as before, along with the addition of 4-HT (10 nM). At the end of 72 hr after initial stimulation, cells were washed thrice and maintained in the absence of any stimulation but in the presence of 4-HT and IL-7 (10 ng/ml).
# Because the sustained expression of T-bet is necessary and sufficient for imprinting type I effector cell fate (Matsuda et al., 2007) and mTOR inhibition reversed IL-12 imprinted type I effector maturation in OT-I cells (FIG. 3), we next sought to determine whether rapamycin treatment affects T-bet expression in OT-I cells by performing kinetic analysis of T-bet mRNA expression (FIG. 4A). […] Moreover, inhibition of mTOR activity at 12 hr was also able to achieve loss in T-bet expression, similar to the observed loss in type I effector maturation (FIG. 3E).
# [2] = molecular target: T1, mTOR (Mus musculus, UniProt P26883+Q9JLN9); experiment: mTOR activity (mTOR, S6K and S6 phosphorylation by ICS) in stimulated OT-I cells; format: cell-based
# T1 construct: endogenous in cells; host or cells: naive OT-I CD8+ T cells (TCR transgenic Rag2-/- mice) stimulated with Ag+B7.1 +/- IL-12
# Procedure: FIG. 1. […] (A and B) OT-I cells stimulated with BOK (Ag+B7.1) (±) IL-12 were evaluated for (A) IFN-γ by ICS and (B) cytolytic activity (primary, 72 hr poststimulation; secondary, 24 hr postsecondary stimulation); ***p<0.0002. (C-E) OT-I cells stimulated with antigen (Ag) (the antigen is a peptide consisting of Ser Ile Ile followed by Asn Phe Glu which are followed by Lys and Lue (OVAp), used at 10 nM) plus B7.1 (100 μg/ml)(Ag+B7.1)(±) IL-12 (2 ng/ml) were evaluated by ICS at the indicated time points for (C) phosphorylated mTOR, (D) phosphorylated S6K, and (E) phosphorylated ribosomal S6. For mTOR inhibition, rapamycin (20 ng/ml) was added 30 min prior to addition of antigen, cytokine Data are representative of at least three independent experiments with similar outcomes. (Data are presented as mean±SEM.)
# (§1) Stimulation of OT-1 Cells. Naive OT-I cells were stimulated with latex microspheres expressing H-2K^b/ovalbumin antigen and B7.1 according to known techniques. Naive OT-II cells were stimulated with anti-CD3-/anti-CD28-coated latex beads. In some experiments, the cell line derived from embryonic fibroblasts, namely, BOK (MEC.B7.SigOVA: expressing H-2K^b, OVAp and B7.1, were used as antigen-presenting cells to stimulate naive OT-I cells according to known techniques.
# Although the kinase mTOR has been implicated as an integrator of various extracellular signals and a sensor for internal energy levels for determination of cell fate, the role for mTOR in integrating instructions that program naive CD8^+ T cells for type I effector differentiation is unclear. First, we tested the ability of Ag and B7.1 (Ag+B7.1) in the presence or absence of IL-12 to activate mTOR in OT-I cells at various time points after stimulation. Stimulation of naive OT-I cells with Ag+B7.1 induced mTOR phosphorylation (activation) by 2 hr, which was maximal at 12 hr and barely detectable by 48 hr (FIG. 1C). Remarkably, IL-12 addition enhanced Ag+B7.1-induced mTOR phosphorylation at 2 hr, which was maintained at 48 hr after stimulation (FIG. 1C). […] To verify that the induction of mTOR phosphorylation also led to its kinase activity, we monitored the kinetics of p70 S6K phosphorylation (Ser 371), a direct target of mTOR kinase activity. Although both Ag+B7.1 and Ag+B7.1 plus IL-12 induced similar amounts of S6K phosphorylation at 12 hr (maximal), the presence of IL-12 was able to sustain the S6K phosphorylation up to 48 hr (FIG. 10), in correlation with mTOR phosphorylation (FIG. 1C). […] The Ag+B7.1±IL-12 stimulation-induced S6K and S6 phosphorylation in OT-I cells was blocked by rapamycin (specific inhibitor of mTOR complex-1) (FIGS. 1D and 1E), thus confirming the ability of instructions to activate mTOR and its kinase activity in OT-I cells. […]
# [3] = test system: OT-I cells; experiment: Type I effector functions (IFN-γ, CTL activity, Granzyme B) of OT-I cells, primary and secondary phase; format: cell-based, mouse; conditions: T-bet-ER-transduced; tamoxifen 10 nM; secondary phase
# Procedure: FIG. 3. Sustained mTOR Activity Is Essential for Heritable Type I Effector Differentiation of CD8^+ T Cells. […] (D and E) OT-I cells were stimulated with Ag+B7.1 (±) IL-12 and rapamycin was added 12 hr after stimulation to evaluate cells for (D) S6K phosphorylation at 48 hr and (E) IFN-γ production at the primary and secondary phase. Experiments shown are representative of at least three (A and B) and two (C-E) independent experiments with similar outcomes. (Data are presented as mean±SEM.)
# as §1
# Evaluation of Secondary Antigen-Recall Responses In Vitro. For studying secondary antigen-recall response in vitro; OT-I cells harvested at 72 hr (primary) were washed thrice with medium and recultured (1×10^5/ml) for an additional 72 hr in a 24-well plate with IL-7 (10 ng/ml) only. At 144 hr the cells were harvested, washed thrice with medium, had numbers adjusted (5×10^5), and were restimulated with Ag/B7.1 only for an additional 24 hr (secondary stimulation). At 168 hr, the cells recovered were evaluated by flow cytometry and in vitro functional assay.
# Because the presence of IL-12 during antigen stimulation augments mTOR activity and is deterministic for type I effector maturation, we analyzed whether sustained mTOR kinase activity is required for IL-12-programmed type I effector functions in OT-I cells. To do so, we stimulated naive OT-I cells with BOK±IL-12, and rapamycin and effector functions were analyzed from the primary and secondary activated OT-I pool. […] In addition, we observed a block in IL-12-induced IFN-γ production and CTL activity upon rapamycin treatment at 144 hr after primary stimulation.
# [4] = test system: B16 tumors expressing gp100; experiment: Melanoma model: B16-gp100 tumors in C57/BL6 mice, vaccine with or without temsirolimus; format: in vivo, mouse; conditions: vaccine gp100+CA9; treated 10 days after implantation
# Procedure: FIG. 9. mTOR inhibition with temsirolimus enhanced the antitumor effects of a cancer vaccine (complex of gp100 and CA9) in C57/BL6 mice treated 10 days after implantation of B16 tumors expressing gp100. Each line represents tumor growth in a single mouse. To generate the vaccine, gp100 (antigen target) and CA9 (adjuvant) were complexed at 1:1 molar ratio by incubating at RT for 30 min. On day 0, 2×10^5 B16-gp100 cells were implanted into mice. The vaccine was administered i.d. on days 10, 17 and 24. Temsirolimus was inject i.p. on days 11 to 16, 18 to 23 and 25 to 30.
# (§2) In the RCC model, a heat shock protein (HSP) served as an immune adjuvant and was complexed to a target antigen, carbonic anhydrase IX (CA9), which is expressed by 90% of clear cell RCCs. Balb/c mice were implanted with syngeneic RENCA tumors engineered to express CA9. In a treatment model targeting established tumor implants, mice were treated 10 days after implantation with tumor vaccine with or without temsirolimus (FIG. 8). […] In this model, CA9 was complexed to a melanoma antigen, gp100. C57/BL6 mice were implanted with syngeneic B16 tumors engineered to express gp100; mice were treated 10 days later with tumor vaccine. Similar results were obtained using a murine ovarian cancer model where the vaccine was augmented with rapamycin.
# [5] = test system: RENCA tumors expressing CA9; experiment: Renal cell carcinoma model: RENCA-CA9 tumors in Balb/c mice, vaccine with or without temsirolimus; format: in vivo, mouse
# Procedure: FIG. 8. Renal Cell Carcinoma model. mTOR inhibition with temsirolimus enhanced the antitumor effects of a cancer vaccine (complex of hsp110 and CA9) in Balb/C mice 10 days after implantation of RENCA tumors expressing the tumor antigen CA9. Each line represents tumor growth in a single mouse. To generate the vaccine, CA9 (antigen target) and HSP110 (heat shock protein adjuvant) were complexed at 1:1 molar ratio by incubating at 43° C. for 30 min. On day 0, 2×10^5 Renca-CA9 cells were implanted into mice. The vaccine was administered i.d. on days 10, 17 and 24. Temsirolimus was inject i.p. on days 11 to 16, 18 to 23 and 25 to 30.
# as §2
# [6] = test system: RENCA (renal cancer cells); experiment: In vitro growth of RENCA cells; format: cell-based, mouse
# [7] = test system: gp100; experiment: gp100-specific IFN-γ ELISPOT of splenocytes after immunization; format: in vivo, mouse; conditions: concurrent treatment with temsirolimus; p<0.05
# Excerpt: FIG. 10. Immunization with CA9+gp100 elicited a gp100-specific IFN-γ response measured using the ELISPOT assay.
# (§3) Consistent with this possibility, immunization with CA9+gp100 elicited a gp100-specific IFN-γ response from splenocytes using an ELISPOT assay. […] Further, specific killing increased with temsirolimus treatment in an in vivo CTL assay. Pmel-1 cells were adoptively transferred to C57/BL6 mice and immunized with gp100+CA9 with or without temsirolimus. Pmel-1 cells are transgenic cells that recognize the H-2 Db-restricted epitope corresponding to amino acids 25-33 of gp100.13 Target cells loaded with the H-2 Db-restricted epitope were injected and monitored 14 hours later by flow cytometry. […] When temsirolimus was administered with the vaccine, specific killing increased to 78%.
# [8] = test system: B16 melanoma; experiment: In vitro growth of B16 melanoma; format: cell-based, mouse
# [9] = test system: target cells loaded with gp100 25-33 epitope; experiment: In vivo CTL assay with Pmel-1 cells in C57/BL6 mice; set-up: species or system mouse; conditions: temsirolimus administered with the vaccine; 14 hours
# Excerpt: as §3
# [10] = 2-DG added to Ag+B7.1 and IL-12-stimulated OT-I cells
compound,measurement,setting,value
"O=CC[C@@H](O)[C@H](O)[C@H](O)CO [2-DG, 2-deoxyglucose]",T-bet expression,[1]; [10],loss
same,mTOR activity,[2]; [10],loss
CC/C(=C(\c1ccccc1)c1ccc(OCCN(C)C)cc1)c1ccccc1 [tamoxifen],T-bet expression in T-bet-ER-transduced OT-I cells,[1]; tamoxifen 10 nM,substantial increase
same,IFN-γ production in rapamycin-treated IL-12-conditioned OT-I cells,[3],restored
CO[C@H]1C[C@@H]2CC[C@@H](C)[C@@](O)(O2)C(=O)C(=O)N2CCCC[C@H]2C(=O)O[C@H]([C@H](C)C[C@@H]2CC[C@@H](OC(=O)C(C)(CO)CO)[C@H](OC)C2)CC(=O)[C@H](C)/C=C(\C)[C@@H](O)[C@@H](OC)C(=O)[C@H](C)C[C@H](C)/C=C/C=C/C=C/1C [temsirolimus],"Tumor growth, combination of vaccine and temsirolimus",[4],greatest effect
same,"Tumor growth, agent alone",[5]; treatment from 10 days after implantation,decrease
same,"Tumor growth, combination of vaccine and temsirolimus","[5]; vaccine i.d. days 10, 17, 24, temsirolimus i.p. between",greatest effect
same,Growth in vitro,[6],direct effect
same,gp100-specific IFN-γ response from splenocytes,[7],significantly augmented
same,Growth in vitro,[8],no effect
same,Specific killing,[9],78%
insulin,T-bet expression,"[1]; insulin (1 U/ml) added to Ag+B7.1-stimulated OT-I cells, 72 hr",increase
same,mTOR activity (S6 Kp),"[2]; insulin (1 U/ml) added to Ag+B7.1-stimulated OT-I cells, 48 hr",enhanced
